Reference: patent US10947252B2, “Inhibitors of KEAP1-Nrf2 protein-protein interaction” (Janssen Pharmaceutica NV, priority 2018, dated 2021)

Experiments:
[1] = tested on: Glo-Response ARE-luc2P HEK293 cell line; test: ARE luciferase reporter cell-based assay; conditions: Homo sapiens, HEK293, 24 h, average of results obtained;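 note: luciferase signal tracks Nrf2 activation of the ARE once compounds disrupt KEAP1-Nrf2 binding, read with One-Glo reagent, DMSO serving as low control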
Protocol: The ARE assay utilizes a luciferase reporter cell line where the signal is proportional to NrF2 activation of the ARE. The cell line is commercially available from Promega and was prepared by stably transfecting HEK293 cells with a vector (pGL4.11) which contains the ARE response element upstream of a minimal promoter. The promoter drives expression of luc2 firefly luciferase gene. Upon disruption of KEAP1-Nrf2 binding by compound, Nrf2 translocates into the nucleus where it binds to the ARE and activates transcription of luciferase.
The materials used in this ARE assay are as follows: Glo-Response ARE-luc2P HEK293 cell line and One-Glo Luciferase Assay System were purchased from Promega (Madison, Wis.). Dulbecco's Modified Eagle medium ((DMEM), low glucose, GlutaMAX, pyruvate), fetal bovine serum (certified, heat inactivated), hygromycin B, Dulbecco's phosphate-buffered saline were purchased from Life Technologies (Grand Island, N.Y.). Penicillin, streptomycin solution (100×) and 0.05% trypsin-EDTA were purchased from Corning (Manassas, Va.). DMSO was purchased from EMD Millipore.
The ARE assay protocol is as follows: cells were maintained in growth medium (DMEM+10% FBS, 200 μg/mL hygromycin B, p-s) between 20-90% confluency by splitting twice per week. One day before the assay, cells were trypsinized, counted to determine viable cell count, and re-suspended in assay medium (DMEM+10% FBS, p-s) at 250,000 cells/mL. […] 100% DMSO was used as the low control. A 11-point dose series of the control compound was included on every plate. Compounds were spotted to an intermediate plate (Greiner #781280 V-bottom 384 well plate) using the Echo acoustic dispenser (Labscyte San Jose, Calif.). Spot size was 240 nL.
On the day of the assay, 60 mL per well of assay medium was added to the pre-spotted plate to make 2× compound stocks using the Combi (Thermo Waltham, Mass.). Compound and medium were mixed on the Janus and 20 mL of 2×compound stock was added to the cell plate which already contained 20 mL of assay medium from cell plating. […] The plates were returned to the tissue culture incubator for 24 hours.
The next day, luciferase activity was measured according to the manufacturer's protocol for One-Glo luciferase reagent. The plates were removed from the incubator and allowed to equilibrate to room temperature for 30 min. Forty microliters of One-Glo reagent (equilibrated to room temperature) was added per well using the Combi. The plates were mixed on an orbital shaker for 3 min. Luminescence was read on the BMG Pherastar multiplate reader (Cary, N.C.) using the luminescence protocol (1 sec interval).
The dose-response data were analyzed in Genedata Screener using 4PL nonlinear regression model. Raw luminescence counts as well as normalized values were used for data analysis.

[2] = target: Kelch domain of human KEAP1 (321-624 aa) (Homo sapiens (Human), UniProt Q14145); test: KEAP1 KELCH ThermoFluor binding assay; conditions: KEAP Kelch […], 1,8-ANS, pH 7.0, average of results obtained, read-out: Tf Kd;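 note: Ligand-induced melting temperature shift of E. coli-expressed KEAP1 Kelch protein, Kd estimated from concentration-response curves of ΔTm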
Sequence of Kelch domain of human KEAP1 (321-624 aa) (Q14145 321-624): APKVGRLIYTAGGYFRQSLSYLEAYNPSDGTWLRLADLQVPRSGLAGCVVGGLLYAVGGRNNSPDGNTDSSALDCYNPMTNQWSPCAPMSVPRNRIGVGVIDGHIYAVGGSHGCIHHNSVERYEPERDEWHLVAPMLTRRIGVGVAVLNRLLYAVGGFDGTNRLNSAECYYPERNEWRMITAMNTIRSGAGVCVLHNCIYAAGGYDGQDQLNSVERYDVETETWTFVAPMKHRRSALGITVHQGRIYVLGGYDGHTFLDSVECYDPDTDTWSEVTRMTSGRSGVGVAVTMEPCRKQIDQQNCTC

| SMILES | EC50 [1] | Kd [2] |
| --- | --- | --- |
| Cc1cnc2c(c1)S(=O)(=O)N(Cc1cc(C(c3ccn4c(C(F)F)nnc4c3C)C(C)(C)C(=O)O)ccc1C)CC1(CCOCC1)O2 (racemic) [Example 575, (R/S)-3-(3-(Difluoromethyl)-8-methyl-[1,2,4]triazolo[4,3-a]pyridin-7-yl)-2,2-dimethyl-3-(4-methyl-3-((8′-methyl-1′,1′-dioxido-2,3,5,6-tetrahydrospiro[pyran-4,4′-pyrido[2,3-b][1,4,5]oxathiazepin]-2′(3′H)-yl)methyl)phenyl)propanoic Acid] | 0.00662 µM | < 0.001 µM |
| Cc1ccc([C@H](CC(=O)O)c2ccn3c(C(F)(F)F)nnc3c2C)cc1CN1C[C@H]2CCCCN2c2ncccc2S1(=O)=O (single isomer, unassigned) [Example 272, (*S)-3-(3-(((*R)-5,5-Dioxido-7,7a,8,9,10,11-hexahydro-6H-dipyrido[2,1-d:2′,3′-f][1,2,5]thiadiazepin-6-yl)methyl)-4-methylphenyl)-3-(8-methyl-3-(trifluoromethyl)-[1,2,4]triazolo[4,3-a]pyridin-7-yl)propanoic Acid] | 0.0109 µM | < 0.001 µM |
| Cc1cnc2c(c1)S(=O)(=O)N(Cc1cc(C(c3ccn4c(C(F)(F)F)nnc4c3C)C(C)(C)C(=O)O)ncc1C)CC1(CC1)O2 (racemic) [Example 587, (R/S)-2,2-Dimethyl-3-(8-methyl-3-(trifluoromethyl)-[1,2,4]triazolo[4,3-a]pyridin-7-yl)-3-(5-methyl-4-((8′-methyl-1′,1′-dioxidospiro[cyclopropane-1,4′-pyrido[2,3-b][1,4,5]oxathiazepin]-2′(3′H)-yl)methyl)pyridin-2-yl)propanoic Acid] | 0.0174 µM | < 0.001 µM |
| Cc1ccc([C@@H](c2ccn3c(C4CC4)nnc3c2C)C(C)(C)C(=O)O)cc1CN1CC2(COC2)Oc2ncccc2S1(=O)=O (single isomer, unassigned) [Example 621, (*S)-3-(3-Cyclopropyl-8-methyl-[1,2,4]triazolo[4,3-a]pyridin-7-yl)-3-(3-((1′,1′-dioxidospiro[oxetane-3,4′-pyrido[2,3-b][1,4,5]oxathiazepin]-2′(3′H)-yl)methyl)-4-methylphenyl)-2,2-dimethylpropanoic Acid] | 5.64 µM | < 0.001 µM |
| Cc1ccc(C(CC(=O)O)c2ccn3c(C(F)F)nnc3c2C)cc1CN1C[C@@H]2COCCN2c2ncccc2S1(=O)=O (stereo in doubt) [Example 457, 3-(3-(Difluoromethyl)-8-methyl-[1,2,4]triazolo[4,3-a]pyridin-7-yl)-3-(3-(((*R)-5,5-dioxido-7a,8,10,11-tetrahydro-[1,4]oxazino[3,4-d]pyrido[2,3-f][1,2,5]thiadiazepin-6(7H)-yl)methyl)-4-methylphenyl)propanoic Acid] | 0.479 µM | 0.00102 µM |
| Cc1ccc(C(CC(=O)O)c2ccn3c(C(F)(F)F)nnc3c2C)cc1CN1C[C@@H]2CCCCN2c2ncccc2S1(=O)=O (stereo in doubt) [Example 289, 3-(3-(((*S)-5,5-Dioxido-7,7a,8,9,10,11-hexahydro-6H-dipyrido[2,1-d:2′,3′-f][1,2,5]thiadiazepin-6-yl)methyl)-4-methylphenyl)-3-(8-methyl-3-(trifluoromethyl)-[1,2,4]triazolo[4,3-a]pyridin-7-yl)propanoic Acid] | 0.0193 µM | < 0.001 µM |
| CCn1nnc2c(C)c([C@H](c3cnc(C)c(CN4CC5(CCOCC5)Oc5ncc(C)cc5S4(=O)=O)c3)C(C)(C)C(=O)O)ccc21 (single isomer, unassigned) [Example 63, (*R)-3-(1-Ethyl-4-methyl-1H-benzo[d][1,2,3]triazol-5-yl)-2,2-dimethyl-3-(6-methyl-5-((8′-methyl-1′,1′-dioxido-2,3,5,6-tetrahydrospiro[pyran-4,4′-pyrido[2,3-b][1,4,5]oxathiazepin]-2′(3′H)-yl)methyl)pyridin-3-yl)propanoic Acid] | 3.28 µM | 14.5 µM |
